Here are results for four compounds from US20210355501A1, “INTERLEUKIN-8 FOR MAINTENANCE OF HUMAN ACUTE MYELOID LEUKEMIA AND MYELODYSPLASTIC SYNDROME AND USES THEREOF” (Albert Einstein College of Medicine, priority 2018, published 2021).

Entries after “also recorded” stand apart in the source; their conditions may differ.

The subject of test [1] is primary samples from AML and high risk MDS cases. The note with it: cited from earlier work.
Test [2] has as its system healthy control CD34+ cells. Conditions: cited from earlier work.
The target of another test is T1, CXCR2 (Homo sapiens, UniProt P25025).
T1 sequence (P25025 1-360): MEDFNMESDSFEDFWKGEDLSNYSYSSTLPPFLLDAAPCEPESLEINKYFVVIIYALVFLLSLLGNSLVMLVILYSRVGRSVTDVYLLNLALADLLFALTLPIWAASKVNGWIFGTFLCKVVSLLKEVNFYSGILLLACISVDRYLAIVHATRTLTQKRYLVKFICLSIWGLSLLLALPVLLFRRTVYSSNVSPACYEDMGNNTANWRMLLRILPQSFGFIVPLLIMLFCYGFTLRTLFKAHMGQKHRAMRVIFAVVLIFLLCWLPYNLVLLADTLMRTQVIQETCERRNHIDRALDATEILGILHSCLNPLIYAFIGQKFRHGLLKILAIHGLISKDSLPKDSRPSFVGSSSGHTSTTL
The note with it: cited from earlier work.

A further test relates to AML cell lines. The note with it: all AML cell lines; cited from earlier work.
The test system of a further test is IL8. In words: serum IL8 levels by ELISA in patients. The class given is in vivo, human. Conditions: 3 patients. From the text:
FIG. 1A-1C. IL8 is detectable in MDS/AML serum and correlated with disease severity. ELISA for IL8 was done on controls and MDS and AML patient serum samples. […] IL8 levels were increased after transformation of low risk MDS to higher risk MDS/AML (B) and decreased after treatment with 5-Azacytidine (C).
It was previously shown that IL8 mRNA is overexpressed in MDS and AML cells. It was now determined whether IL8 can be detected in serum of patients with MDS and AML. A total of 33 patients (MDS low risk (21), MDS high risk (6) and AML (6)) and 30 controls sera were collected and analyzed for IL8 levels by ELISA. […] Furthermore, IL8 levels went up in 3 patients that transformed from low risk MDS to higher risk MDS or AML (FIG. 1B). Additionally, IL8 levels dropped after treatment in another 3 patients that were treated with 5-Azacytidine (FIG. 1C).

Test [3] deals with patient-derived xenografts from MDS/AML. Kind of test: engraftment of patient-derived MDS/AML xenografts in NSG mice given exogenous recombinant human IL8. The class given is in vivo, mouse. Conditions: for engraftment of primary MDS and AML patients' cells: 3 patient derived xenografts (1 AML, 2 MDS). From the text:
FIG. 2A-2E. Efficacy of human IL8 addition in patient-derived xenografts from MDS/AML. […] Averaged data in (C); data from individual subjects in (D). The improvement in engraftment is sustained (as shown for representative PDX) (E).

Test [4] deals with primary AML patient cells. Kind of test: AML cell engraftment in NSG mice pre-transplanted with doxycycline-induced hIL-8-transgenic bone marrow cells. The class given is in vivo, mouse. Conditions: 4 months post-transplantation; for increase of AML cell engraftment vs uninduced control: p=0.0106, N=8. The text has this: FIG. 3. Xenotransplantation of primary AML cells into NSG mice pre-transplanted with hIL8-transgenic and doxycycline-induced congenic bone marrow cells leads to a more than 10-fold increase (p=0.0106, N=8) of AML cell engraftment.
We have generated a new transgenic mouse model in which we inserted a doxycycline-inducible human IL-8 transgene into the immunocompromised NSG mouse strain. We then performed congenic transplantation of hIL-8-transgenic bone marrow cells into 8 parental NSG mice, followed by doxycycline-triggered induction of hIL-8 in 4 of the recipient mice. 4 uninduced mice served as a control. We then xenotransplanted 5×10^6 leukemic cells from an AML patient into these animals and determined AML cell engraftment in the bone marrow 4 months post-transplantation. […] We have now a novel transgenic mouse system available that permits for the first time the generation of robust primary xenografts and PDX models from AML and MDS patients' cells, which can be used for drug development and testing purposes as well as functional/mechanistic studies.

With `NS(=O)(=O)c1c(Cl)ccc(NC(=O)Nc2cccc(Cl)c2Cl)c1O` [SB332235], the “proliferation in primary samples” value in test [1] is “significant inhibition of proliferation”. In addition, the “growth of healthy control CD34+ cells” value in test [2] is “only minimally affecting growth”. Moreover, the “selectivity for CXCR2 over CXCR1” value at CXCR2 is reported as 100 fold. Besides, the proliferation entry with AML cell lines is given as “dose dependent decrease in proliferation”.

As for `Nc1ncn([C@@H]2O[C@H](CO)[C@@H](O)[C@H]2O)c(=O)n1` [5-Azacytidine], the “IL8 levels in serum after treatment” value in the test with IL8 was “decreased; also recorded: dropped”.

Regarding “rhIL8: exogenous recombinant human IL8 injected into xenotransplant recipient mice”, the “engraftment of primary MDS and AML patients' cells” value in test [3] is “increased engraftment”; in test [3] (listed as IL8), “highly significant increase”. For the same compound, in test [3] (NSG mice, after 3 weeks of treatment, vs vehicle controls), the “engraftment from AML sample” value was “higher engraftment”.

Turning to “hIL-8: human IL-8 expressed from doxycycline-inducible transgene in transplanted bone marrow cells of NSG mice”, in test [4] (doxycycline-induced hIL-8, 5×10^6 leukemic cells), the “AML cell engraftment in the bone marrow (average)” value amounted to 42.2%. In addition, the entries for the “increase of AML cell engraftment vs uninduced control” value in test [4] and in test [4] (listed as hIL8) were 10.4 fold and “more than 10 fold”, respectively.
